Experimental findings from ChEMBL document CHEMBL5291721, “A preclinical secondary pharmacology resource illuminates target-adverse drug reaction associations of marketed drugs” (Nat Commun, 2023) are described below.

As usually defined, the AC50 is the concentration giving half of the maximal activity seen. A higher AC50 goes with activity only at high concentration.

One experiment addresses T1, B2 bradykinin receptor (Homo sapiens, UniProt P30411).
T1 sequence (P30411 whole entry): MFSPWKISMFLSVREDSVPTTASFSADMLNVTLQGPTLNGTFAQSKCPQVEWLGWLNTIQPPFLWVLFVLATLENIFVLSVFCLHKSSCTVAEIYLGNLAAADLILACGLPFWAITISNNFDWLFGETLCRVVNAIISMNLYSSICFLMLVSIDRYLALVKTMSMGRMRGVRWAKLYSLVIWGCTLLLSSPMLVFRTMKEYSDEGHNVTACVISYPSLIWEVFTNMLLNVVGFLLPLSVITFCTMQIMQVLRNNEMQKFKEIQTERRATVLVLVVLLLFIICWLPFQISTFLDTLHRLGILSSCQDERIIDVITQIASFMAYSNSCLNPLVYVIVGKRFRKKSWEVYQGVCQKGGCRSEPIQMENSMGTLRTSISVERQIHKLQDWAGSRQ

A further experiment concerns the target D(3) dopamine receptor (Homo sapiens, UniProt P35462).
Experiment [1] addresses Neuronal acetylcholine receptor subunit alpha-4 (Homo sapiens, UniProt P43681).
For the next experiment, the target named is Histamine H3 receptor (Homo sapiens, UniProt Q9Y5N1).
Histamine H3 receptor, sequence (Q9Y5N1 whole entry): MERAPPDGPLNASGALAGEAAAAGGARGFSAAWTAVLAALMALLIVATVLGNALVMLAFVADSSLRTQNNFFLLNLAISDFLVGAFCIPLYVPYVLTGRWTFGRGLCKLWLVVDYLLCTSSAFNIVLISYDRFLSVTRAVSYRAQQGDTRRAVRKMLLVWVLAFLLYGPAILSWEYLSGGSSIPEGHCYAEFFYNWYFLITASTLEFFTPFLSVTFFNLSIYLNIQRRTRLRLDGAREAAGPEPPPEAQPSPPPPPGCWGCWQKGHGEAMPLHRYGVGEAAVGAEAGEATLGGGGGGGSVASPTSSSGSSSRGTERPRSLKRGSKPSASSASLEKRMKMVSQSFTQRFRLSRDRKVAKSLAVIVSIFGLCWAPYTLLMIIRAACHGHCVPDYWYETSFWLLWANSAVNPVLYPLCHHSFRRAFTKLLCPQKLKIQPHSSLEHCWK
Experiment [2] deals with T2, Equilibrative nucleoside transporter 1 (Homo sapiens, UniProt Q99808).
T2 sequence (Q99808 whole entry): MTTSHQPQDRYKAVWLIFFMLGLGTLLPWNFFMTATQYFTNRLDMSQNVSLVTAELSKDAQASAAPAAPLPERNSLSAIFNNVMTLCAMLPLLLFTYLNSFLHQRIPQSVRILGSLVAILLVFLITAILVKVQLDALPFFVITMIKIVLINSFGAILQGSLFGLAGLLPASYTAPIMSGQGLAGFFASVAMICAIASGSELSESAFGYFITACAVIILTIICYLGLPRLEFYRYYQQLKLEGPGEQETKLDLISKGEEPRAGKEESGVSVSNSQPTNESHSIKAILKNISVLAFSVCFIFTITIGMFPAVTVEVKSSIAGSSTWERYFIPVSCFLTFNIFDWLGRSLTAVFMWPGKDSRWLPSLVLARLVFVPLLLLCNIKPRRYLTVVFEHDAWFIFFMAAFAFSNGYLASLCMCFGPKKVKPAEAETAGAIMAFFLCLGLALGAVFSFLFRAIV

The next experiment concerns the target T3, Adenosine receptor A3 (Homo sapiens, UniProt P0DMS8).
T3 sequence (P0DMS8 whole entry): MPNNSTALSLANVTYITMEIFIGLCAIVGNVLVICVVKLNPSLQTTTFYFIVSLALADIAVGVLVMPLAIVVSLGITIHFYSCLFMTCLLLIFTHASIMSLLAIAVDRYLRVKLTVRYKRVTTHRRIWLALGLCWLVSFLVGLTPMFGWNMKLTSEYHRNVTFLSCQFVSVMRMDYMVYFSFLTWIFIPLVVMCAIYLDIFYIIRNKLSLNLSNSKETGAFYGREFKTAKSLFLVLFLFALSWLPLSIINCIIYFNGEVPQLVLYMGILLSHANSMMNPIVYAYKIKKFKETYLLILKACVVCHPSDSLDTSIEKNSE

Experiment [3] has as its target Growth hormone secretagogue receptor type 1 (Homo sapiens, UniProt Q92847).
In another experiment the target is T4, Adenosine receptor A1 (Homo sapiens, UniProt P30542).
T4 sequence (P30542 whole entry): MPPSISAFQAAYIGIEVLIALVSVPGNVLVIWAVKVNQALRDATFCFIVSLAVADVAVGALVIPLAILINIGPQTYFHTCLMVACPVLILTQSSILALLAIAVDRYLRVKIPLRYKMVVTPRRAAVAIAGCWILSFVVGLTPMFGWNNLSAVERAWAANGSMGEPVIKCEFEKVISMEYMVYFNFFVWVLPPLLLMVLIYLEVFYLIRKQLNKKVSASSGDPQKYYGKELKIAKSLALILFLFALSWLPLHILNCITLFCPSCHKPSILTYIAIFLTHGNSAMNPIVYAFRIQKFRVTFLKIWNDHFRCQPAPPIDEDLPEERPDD

Experiment [4] has as its target Beta-2 adrenergic receptor (Homo sapiens, UniProt P07550).
Further: assay procedure not described here.

Growth hormone secretagogue receptor type 1, sequence (Q92847 whole entry): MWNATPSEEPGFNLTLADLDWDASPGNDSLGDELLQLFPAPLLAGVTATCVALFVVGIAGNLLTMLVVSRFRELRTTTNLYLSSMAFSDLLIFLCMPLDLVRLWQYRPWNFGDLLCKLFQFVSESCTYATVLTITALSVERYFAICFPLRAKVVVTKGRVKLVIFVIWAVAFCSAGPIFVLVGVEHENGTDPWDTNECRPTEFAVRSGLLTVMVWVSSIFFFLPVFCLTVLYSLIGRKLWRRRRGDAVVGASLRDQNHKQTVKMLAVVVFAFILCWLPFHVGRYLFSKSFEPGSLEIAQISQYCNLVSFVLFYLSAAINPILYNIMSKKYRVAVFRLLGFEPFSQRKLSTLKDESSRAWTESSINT
Neuronal acetylcholine receptor subunit alpha-4, sequence (P43681 whole entry): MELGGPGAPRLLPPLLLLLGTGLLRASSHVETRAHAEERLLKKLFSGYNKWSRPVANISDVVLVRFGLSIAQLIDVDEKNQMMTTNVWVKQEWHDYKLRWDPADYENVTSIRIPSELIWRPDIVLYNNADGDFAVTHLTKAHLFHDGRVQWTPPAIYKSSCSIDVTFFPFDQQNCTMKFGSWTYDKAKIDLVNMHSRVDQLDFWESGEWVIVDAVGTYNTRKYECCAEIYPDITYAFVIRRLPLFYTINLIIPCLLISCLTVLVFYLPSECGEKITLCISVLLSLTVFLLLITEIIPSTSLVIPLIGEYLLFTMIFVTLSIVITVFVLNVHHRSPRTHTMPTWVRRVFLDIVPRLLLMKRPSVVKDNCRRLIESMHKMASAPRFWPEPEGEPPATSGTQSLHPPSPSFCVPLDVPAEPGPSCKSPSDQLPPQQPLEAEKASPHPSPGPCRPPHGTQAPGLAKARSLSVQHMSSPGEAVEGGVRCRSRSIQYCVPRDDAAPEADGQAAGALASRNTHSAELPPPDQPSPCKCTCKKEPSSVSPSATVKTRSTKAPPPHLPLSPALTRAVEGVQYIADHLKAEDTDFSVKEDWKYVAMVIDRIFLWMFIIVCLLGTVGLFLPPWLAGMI
D(3) dopamine receptor, sequence (P35462 whole entry): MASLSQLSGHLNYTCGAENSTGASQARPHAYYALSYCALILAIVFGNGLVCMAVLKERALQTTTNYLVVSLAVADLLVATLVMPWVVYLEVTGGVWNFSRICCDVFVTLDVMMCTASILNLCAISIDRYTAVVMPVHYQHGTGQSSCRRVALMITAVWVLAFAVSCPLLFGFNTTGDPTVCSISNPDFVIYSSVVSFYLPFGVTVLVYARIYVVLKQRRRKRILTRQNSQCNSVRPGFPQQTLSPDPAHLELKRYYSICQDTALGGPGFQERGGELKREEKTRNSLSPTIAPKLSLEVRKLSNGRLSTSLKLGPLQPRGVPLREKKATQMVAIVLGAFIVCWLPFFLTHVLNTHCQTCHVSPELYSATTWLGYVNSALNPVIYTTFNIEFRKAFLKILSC
Beta-2 adrenergic receptor, sequence (P07550 whole entry): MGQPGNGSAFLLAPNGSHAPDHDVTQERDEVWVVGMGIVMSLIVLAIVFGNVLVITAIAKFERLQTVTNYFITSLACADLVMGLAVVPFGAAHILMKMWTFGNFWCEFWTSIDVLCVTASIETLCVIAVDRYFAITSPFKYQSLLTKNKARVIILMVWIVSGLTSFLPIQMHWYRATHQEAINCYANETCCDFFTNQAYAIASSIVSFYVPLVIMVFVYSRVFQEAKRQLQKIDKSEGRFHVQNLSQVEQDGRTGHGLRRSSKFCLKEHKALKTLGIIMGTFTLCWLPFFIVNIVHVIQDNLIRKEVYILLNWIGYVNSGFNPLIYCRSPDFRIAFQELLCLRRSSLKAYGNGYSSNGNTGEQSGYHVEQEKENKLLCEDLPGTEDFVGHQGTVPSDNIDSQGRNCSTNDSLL

As to `CCOc1nc2cccc(C(=O)O)c2n1Cc1ccc(-c2ccccc2-c2nnn[nH]2)cc1`, the AC50 was greater than 30 µM at B2 bradykinin receptor; greater than 30 µM on D(3) dopamine receptor; greater than 10 µM in experiment [1]; greater than 30 µM at Histamine H3 receptor; greater than 30 µM in experiment [2]; greater than 30 µM on Adenosine receptor A3. Besides, the results for the AC50 (in experiment [3]; on Adenosine receptor A1; in experiment [4]) were greater than 30 µM, greater than 30 µM and greater than 10 µM, respectively.

For `CCOc1cc([C@@H](CS(C)(=O)=O)N2C(=O)c3cccc(NC(C)=O)c3C2=O)ccc1OC`, the AC50 (at D(3) dopamine receptor; in [1]; on Histamine H3 receptor; in experiment [2]; at Adenosine receptor A3; in [3]) was greater than 30 µM throughout. This compound also showed an AC50 at Adenosine receptor A1 greater than 30 µM.

For `CC(=O)Nc1ccc(CC(=O)O)cc1` [ACTARIT], the AC50 (on B2 bradykinin receptor; at D(3) dopamine receptor; in [1]; on Histamine H3 receptor; in experiment [2]; on Adenosine receptor A3) was greater than 30 µM in each case. The AC50 (in experiment [3]; on Adenosine receptor A1; in [4]) was greater than 30 µM throughout.

For the compound `CC(C(=O)O)c1ccc2oc(-c3ccc(Cl)cc3)nc2c1` (configuration not stated) [BENOXAPROFEN], the AC50 (at B2 bradykinin receptor; on D(3) dopamine receptor; in [1]; at Histamine H3 receptor; in experiment [2]; at Adenosine receptor A3) was greater than 30 µM throughout. The AC50 (in experiment [3]; at Adenosine receptor A1; in [4]) was greater than 30 µM each time.

Take `CC1(C)S[C@@H]2[C@H](NC(=O)C(C(=O)O)c3ccccc3)C(=O)N2[C@H]1C(=O)O` (some centres not stated) [CARBENICILLIN]: the AC50 (at B2 bradykinin receptor; on D(3) dopamine receptor; in experiment [1]; at Histamine H3 receptor; in experiment [2]; at Adenosine receptor A3) was greater than 30 µM throughout. In addition, the AC50 (in experiment [3]; at Adenosine receptor A1) was greater than 30 µM in each case.

As for `Cc1nnc(SCC2=C(C(=O)O)N3C(=O)[C@@H](NC(=O)Cn4cnnn4)[C@H]3SC2)s1` [CEFAZOLIN], the AC50 is greater than 30 µM on B2 bradykinin receptor; greater than 300 µM on D(3) dopamine receptor; greater than 300 µM in [1]; greater than 300 µM on Histamine H3 receptor; greater than 300 µM in experiment [2]; greater than 300 µM at Adenosine receptor A3. Moreover, the AC50 (in [3]; on Adenosine receptor A1) was greater than 300 µM each time.

Turning to `CC=CC1=C(C(=O)O)N2C(=O)[C@@H](NC(=O)[C@H](N)c3ccc(O)cc3)[C@H]2SC1` [CEFPROZIL], the AC50 on B2 bradykinin receptor is greater than 30 µM; at D(3) dopamine receptor it was 26 µM; in experiment [1], greater than 30 µM; at Histamine H3 receptor it was greater than 30 µM; in experiment [2] it was greater than 30 µM; on Adenosine receptor A3 it was greater than 30 µM. Further, the AC50 (in [3]; on Adenosine receptor A1; in experiment [4]) was greater than 30 µM throughout.

Regarding `CC(C)(O/N=C(\C(=O)N[C@@H]1C(=O)N2C(C(=O)[O-])=C(C[n+]3ccccc3)CS[C@H]12)c1csc(N)n1)C(=O)O` [CEFTAZIDIME], the AC50 on B2 bradykinin receptor is greater than 30 µM; at D(3) dopamine receptor it was greater than 300 µM; in [1] it was greater than 300 µM; at Histamine H3 receptor, greater than 300 µM; in experiment [2] it was greater than 300 µM; on Adenosine receptor A3 it was greater than 300 µM. Besides, the AC50 (in experiment [3]; at Adenosine receptor A1) was greater than 300 µM throughout.

For the compound `CCCNC(=O)NS(=O)(=O)c1ccc(Cl)cc1` [CHLORPROPAMIDE], the AC50 at B2 bradykinin receptor was greater than 30 µM; on D(3) dopamine receptor, greater than 30 µM; in experiment [1], greater than 10 µM; on Histamine H3 receptor, greater than 10 µM; in experiment [2], greater than 30 µM; on Adenosine receptor A3, greater than 30 µM. Also, the AC50 in experiment [3] is greater than 30 µM; on Adenosine receptor A1 it was greater than 30 µM; in [4], greater than 10 µM.

Turning to `Clc1ccc(Cn2c(CN3CCCC3)nc3ccccc32)cc1` [CLEMIZOLE], the AC50 at D(3) dopamine receptor was greater than 30 µM; in experiment [1], greater than 10 µM; at Histamine H3 receptor, greater than 30 µM; in experiment [2], greater than 30 µM; at Adenosine receptor A3 it was greater than 30 µM; in experiment [3], greater than 30 µM. The AC50 at Adenosine receptor A1 is greater than 30 µM.

Turning to `CCC(=O)O[C@]1(C(=O)CCl)[C@@H](C)C[C@H]2[C@@H]3CCC4=CC(=O)C=C[C@]4(C)[C@@]3(F)[C@@H](O)C[C@@]21C` [CLOBETASOL PROPIONATE], the AC50 (at B2 bradykinin receptor; at D(3) dopamine receptor; on Histamine H3 receptor; in experiment [2]; on Adenosine receptor A3; in experiment [3]) was greater than 30 µM each time. The concentration at half-maximal activity (AC50) at Adenosine receptor A1 is greater than 30 µM.

`CC(C)Cc1ccc([C@H](C)C(=O)O)cc1` [DEXIBUPROFEN]: the AC50 (at D(3) dopamine receptor; in experiment [1]; at Histamine H3 receptor; in experiment [2]; at Adenosine receptor A3; in experiment [3]) was greater than 30 µM throughout. Besides, the AC50 on Adenosine receptor A1 is greater than 30 µM.

Take `CNC[C@H](O)c1ccc(O)c(O)c1` [EPINEPHRINE]: the AC50 at D(3) dopamine receptor is 8.4 µM; in experiment [1] it was greater than 30 µM; on Histamine H3 receptor, greater than 30 µM; in experiment [2] it was greater than 30 µM; at Adenosine receptor A3 it was 18 µM; in experiment [3] it was greater than 30 µM. Moreover, the AC50 at Adenosine receptor A1 was greater than 30 µM.

On to `Cc1onc(-c2c(F)cccc2Cl)c1C(=O)N[C@@H]1C(=O)N2[C@@H]1SC(C)(C)[C@@H]2C(=O)O` [FLOXACILLIN], for which the AC50 (on D(3) dopamine receptor; in [1]; on Histamine H3 receptor; in experiment [2]; at Adenosine receptor A3; in experiment [3]) was greater than 30 µM each time. On Adenosine receptor A1, this compound returned a half-maximal activity concentration (AC50) greater than 30 µM.

On to `CNC(=C[N+](=O)[O-])NCCSCc1csc(CN(C)C)n1` [NIZATIDINE], for which the concentration at half-maximal activity (AC50) was greater than 10 µM on B2 bradykinin receptor; greater than 30 µM on D(3) dopamine receptor; greater than 10 µM in experiment [1]; greater than 10 µM in experiment [2]; greater than 10 µM on Adenosine receptor A3; greater than 10 µM in [3]. Besides, the AC50 (at Adenosine receptor A1; in experiment [4]) was greater than 10 µM throughout.

As to `CN1Cc2c(N)cccc2C(c2ccccc2)C1` (configuration not stated) [NOMIFENSINE], the concentration at half-maximal activity (AC50) (on B2 bradykinin receptor; at D(3) dopamine receptor; in experiment [1]; at Histamine H3 receptor; in experiment [2]; at Adenosine receptor A3) was greater than 30 µM in each case. Moreover, the AC50 (in experiment [3]; at Adenosine receptor A1) was greater than 30 µM each time.

Regarding `S=P(N1CC1)(N1CC1)N1CC1` [THIOTEPA], the AC50 was 9.9 µM on D(3) dopamine receptor; greater than 30 µM in experiment [1]; greater than 30 µM at Histamine H3 receptor; greater than 30 µM in experiment [2]; greater than 30 µM on Adenosine receptor A3; greater than 30 µM in experiment [3]. The compound further came in with an AC50 on Adenosine receptor A1 greater than 30 µM.

In the case of `COc1cc(C(=O)NS(=O)(=O)c2ccccc2C)ccc1Cc1cn(C)c2ccc(NC(=O)OC3CCCC3)cc12` [ZAFIRLUKAST], the AC50 was greater than 10 µM at B2 bradykinin receptor; greater than 10 µM in experiment [1]; greater than 10 µM at Histamine H3 receptor; greater than 10 µM in [2]; 11.4 µM at Adenosine receptor A3; greater than 10 µM in experiment [3]. In addition, the AC50 was greater than 30 µM on Adenosine receptor A1 and greater than 10 µM in [4].
